Assays:
[1] = usual extraction and storage conditions; cited from earlier work
[2] = tested on: release of APPs produced by α-secretase; assay: release of APPs in the culture medium of neuroblastoma cell line SH-SY5Y; assay type: cell-based; conditions: 10 μM; APPs secreted in culture medium of SH-SY5Y; controls = 100
Experimental: It is in fact known that proteolytic cleavage of Alzheimer Precursor Protein (APP) is mediated both by β- and γ-secretase, inducing an increased production of amyloid peptide Ab1-42 (which also plays a central role in the appearance of Alzheimer's disease), and […], giving raise to soluble APPs which have no pathogenic activity (Eslr W. P., Wolfe M. S., Science, 293, 1449-54, 2001).
The effect of the compounds of the invention on the release of APPs produced by α-secretase was evaluated in the culture medium of a neuroblastoma cell line (SH-SY5Y) according to the procedure described by Galbete J. L. et al. in Biochem J. 348, 307-313, 2000.

Molecule | stability (in words) [1] | APPs % [2] [%]
CC(C)=CCC[C@]1(C)[C@@H](CC=C(C)C)C[C@@]2(CC=C(C)C)C(=O)[C@]1(C(=O)C(C)C)C(=O)C(CC=C(C)C)=C2O [Hyperforin] | poorly stable | 296
8-chlorooctahydrohyperforin | – | 855
CC(C)=CCC[C@]1(C)[C@@H](CC=C(C)C)C[C@]2(CC=C(C)C)C(=O)C(Cl)(CC=C(C)C)C(=O)[C@@]1(C(=O)C(C)C)C2=O (stereo partly shown) [Chlorohyperforin, 8-chlorohyperforin] | – | 627

Reference: US20050222274A1 (priority 2002, published 2005)
